Target: T1, acetylcholinesterase from electric eel source (AChE, E.C. 3.1.1.7, Type V-S) (Electrophorus electricus, UniProt O42275)
T1 construct: Acetylcholinesterase enzyme extracted from electric eel was utilized; purchased Sigma-Aldrich (Steinheim, Germany) Type V-S; host or cells: electric eel tissue (extracted)
Test: biochemical
Conditions: Ellman test, preincubation 15 min at 25 °C, pH 8.0, triplicate, IC50 ± SD, read-out: IC50 (enzymatic assay, acetylcholinesterase inhibition)
Method: Lyophilized powder of acetylcholinesterase from electric eel source (AChE, E.C. 3.1.1.7, Type V-S, 1000 unit) was purchased from Sigma-Aldrich (Steinheim, Germany). 5,5′-Dithiobis-(2-nitrobenzoic acid, DTNB), potassium dihydrogen phosphate (KH2PO4), dipotassium hydrogen phosphate (K2HPO4), potassium hydroxide (KOH), sodium hydrogen carbonate (NaHCO3), and acetylthiocholine iodide were purchased from Fluka (Buchs, Switzerland).
According to the literature, the Ellman test was performed for assessment of the anticholinesterase activity of intended compounds in-vitro. […] After rapid and immediate mixing the change of absorption was measured at 412 nm.
The blank reading contained 3 mL buffer, 200 µL water, 100 µL DTNB and 20 µL substrate. The reaction rates were calculated, and the percent inhibition of test compounds was determined. Each concentration was analyzed in triplicate, and IC50 ± SD values were determined graphically from inhibition curves (log inhibitor concentration vs. percent of inhibition) ([22], [23]).
Acetylcholinesterase enzyme extracted from electric eel was utilized for assessment of the potency of intended compounds.

T1 sequence (O42275 24-633): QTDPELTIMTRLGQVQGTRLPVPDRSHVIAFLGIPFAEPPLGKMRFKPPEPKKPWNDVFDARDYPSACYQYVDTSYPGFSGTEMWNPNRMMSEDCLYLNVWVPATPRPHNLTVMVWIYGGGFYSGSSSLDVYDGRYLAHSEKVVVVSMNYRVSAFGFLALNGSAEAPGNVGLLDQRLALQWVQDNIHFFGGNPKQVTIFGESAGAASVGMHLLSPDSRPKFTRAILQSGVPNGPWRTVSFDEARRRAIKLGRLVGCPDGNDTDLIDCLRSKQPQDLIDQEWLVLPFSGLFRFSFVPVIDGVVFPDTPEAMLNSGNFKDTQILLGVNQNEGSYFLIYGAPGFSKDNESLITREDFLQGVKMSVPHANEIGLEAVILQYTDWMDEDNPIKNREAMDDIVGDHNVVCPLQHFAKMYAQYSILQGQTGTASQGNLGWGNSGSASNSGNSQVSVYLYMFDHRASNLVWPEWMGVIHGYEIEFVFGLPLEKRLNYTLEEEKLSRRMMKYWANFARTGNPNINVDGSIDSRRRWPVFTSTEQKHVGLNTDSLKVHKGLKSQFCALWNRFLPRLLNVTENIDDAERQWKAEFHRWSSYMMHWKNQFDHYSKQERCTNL

`O=C(Nc1cccc(Cl)c1)c1ccc(N2C(=O)c3ccccc3C2=O)cc1` [Compound 4a, N-(3-Chlorophenyl)-4-(1,3-dioxoisoindolin-2-yl)benzamide] and `O=C(Nc1cccc(F)c1)c1ccc(N2C(=O)c3ccccc3C2=O)cc1` [Compound 4d, 4-(1,3-Dioxoisoindolin-2-yl)-N-(3-fluorophenyl)benzamide] cannot be ordered by IC50: > 250 µM for the first, > 250 µM for the second.

`O=C(Nc1ccc(Cl)cc1)c1ccc(N2C(=O)c3ccccc3C2=O)cc1` [Compound 4b, N-(4-Chlorophenyl)-4-(1,3-dioxoisoindolin-2-yl)benzamide] and `COc1ccc(NC(=O)c2ccc(N3C(=O)c4ccccc4C3=O)cc2)cc1` [Compound 4f, 4-(1,3-Dioxoisoindolin-2-yl)-N-(4-methoxyphenyl)benzamide] cannot be ordered by IC50: > 250 µM for the first, > 250 µM for the second.

Compared with `O=C(Nc1ccccc1F)c1ccc(N2C(=O)c3ccccc3C2=O)cc1` [Compound 4c, 4-(1,3-Dioxoisoindolin-2-yl)-N-(2-fluorophenyl)benzamide], `O=C(Nc1ccccc1[N+](=O)[O-])c1ccc(N2C(=O)c3ccccc3C2=O)cc1` [Compound 4g, 4-(1,3-Dioxoisoindolin-2-yl)-N-(2-nitrophenyl)benzamide] is lower in IC50: > 250 µM for the first, 1.1 ± 0.25 µM for the second. The second is the more potent here.

`COc1cccc(NC(=O)c2ccc(N3C(=O)c4ccccc4C3=O)cc2)c1` [Compound 4e, 4-(1,3-Dioxoisoindolin-2-yl)-N-(3-methoxyphenyl)benzamide] and `O=C(Nc1ccc([N+](=O)[O-])cc1)c1ccc(N2C(=O)c3ccccc3C2=O)cc1` [Compound 4h, 4-(1,3-Dioxoisoindolin-2-yl)-N-(4-nitrophenyl)benzamide] cannot be ordered by IC50: > 250 µM for the first, > 250 µM for the second.

From publication PMC5149017, “Synthesis and Acetylcholinesterase Inhibitory Evaluation of 4-(1,3-Dioxoisoindolin-2-yl)-N-Phenyl Benzamide Derivatives as Potential Anti-Alzheimer Agents” (Iranian Journal of Pharmaceutical Research : IJPR, 2016)
